Data taken from ChEMBL document CHEMBL5620386, “Synthesis, biological screening and in silico studies of new N-phenyl-4-(1,3-diaryl-1H-pyrazol-4-yl)thiazol-2-amine derivatives as potential antifungal and antitubercular agents” (Eur J Med Chem, 2023).
Converted amounts (≈) assume the structure as drawn. “And” between values parts separate entries of the source, which are not always exact repeats. Equal entries are not always repeated. The source made the active and inactive calls. The calls are words filed in the database; no cut-off is given here.

Experiments:
[1] = test system: Candida albicans; experiment: Antifungal activity against Candida albicans NCIM 3100 assessed as zone of inhibition by well diffusion method; format: functional
[2] = test system: Proteus mirabilis; experiment: Antimicrobial activity against Proteus mirabilis NCIM 2388 assessed as absence of growth by well diffusion method; format: functional
[3] = test system: Bacillus subtilis; experiment: Antimicrobial activity against Bacillus subtilis NCIM 2063 assessed as absence of growth by well diffusion method; format: functional
[4] = test system: Staphylococcus aureus; experiment: Antimicrobial activity against Staphylococcus aureus NCIM 2178 assessed as absence of growth by well diffusion method; format: functional
[5] = test system: Aspergillus niger; experiment: Antifungal activity against Aspergillus niger ATCC 504 assessed as absence of growth by well diffusion method; format: functional
[6] = test system: Escherichia coli; experiment: Antimicrobial activity against Escherichia coli NCIM 2574 assessed as zone of inhibition by well diffusion method; format: functional
[7] = test system: Proteus mirabilis; experiment: Antimicrobial activity against Proteus mirabilis NCIM 2388 assessed as zone of inhibition by well diffusion method; format: functional
[8] = test system: Bacillus subtilis; experiment: Antimicrobial activity against Bacillus subtilis NCIM 2063 assessed as zone of inhibition by well diffusion method; format: functional
[9] = test system: Staphylococcus aureus; experiment: Antimicrobial activity against Staphylococcus aureus NCIM 2178 assessed as zone of inhibition by well diffusion method; format: functional
[10] = test system: Aspergillus niger; experiment: Antifungal activity against Aspergillus niger ATCC 504 assessed as zone of inhibition by well diffusion method; format: functional
[11] = test system: Mycobacterium tuberculosis; experiment: Antitubercular activity Mycobacterium tuberculosis H37Rv strain ATCC No- 27294 assessed as prevention of color change from blue to pink using Almar Blue measured after 24 hrs by MABA assay; format: functional
[12] = Cytotoxicity against mouse 3T3-L1 cells assessed as cell viability at 12.5 ug/ml measured after 24 hrs by MTT assay relative to control; format: toxicity, cell-based; conditions: at 12.5 µg/mL, read-out: Activity
[13] = Cytotoxicity against mouse 3T3-L1 cells assessed as cell viability at 25 ug/ml measured after 24 hrs by MTT assay relative to control; format: toxicity, cell-based; conditions: at 25 µg/mL, read-out: Activity

SMILES	inhibition zone (IZ) [1] [mm]	MIC [2]	MIC [3]	MIC [4]	MIC [5]	inhibition zone (IZ) [6]	inhibition zone (IZ) [7] [mm]	inhibition zone (IZ) [8] [mm]	inhibition zone (IZ) [9] [mm]	inhibition zone (IZ) [10] [mm]	MIC [11]	viability at 24 h, 12.5 ug/ml [12] [%]	viability at 24 h, 25 ug/ml [13] [%]
OC(Cn1cncn1)(Cn1cncn1)c1ccc(F)cc1F [FLUCONAZOLE]	21.6	inactive	inactive	inactive	7.82 µg/mL and 25.5 µM								
Fc1ccc(-c2nn(-c3ccc(F)cc3)cc2-c2csc(Nc3ccc(Cl)cc3)n2)cc1	10	125 µg/mL (≈ 269 µM)	125 µg/mL (≈ 269 µM)	125 µg/mL (≈ 269 µM)	15.6 µg/mL and 33.7 µM	12 mm	15	14	14	19.6	25 µg/mL and 53.9 µM		
Cc1ccc(Nc2nc(-c3cn(-c4ccc(F)cc4)nc3-c3ccccc3)cs2)cc1	10.2	125 µg/mL (≈ 293 µM)	125 µg/mL (≈ 293 µM)	62.5 µg/mL and 147 µM	15.6 µg/mL and 36.7 µM	inactive	14.2	14.2	17	18.6	3.12 µg/mL and 7.34 µM	102	96.2
COc1ccc(Nc2nc(-c3cn(-c4ccc(F)cc4)nc3-c3ccc(F)cc3)cs2)cc1	11.6	125 µg/mL (≈ 271 µM)	7.82 µg/mL (≈ 17 µM)	125 µg/mL (≈ 271 µM)	15.6 µg/mL and 34 µM	inactive	14	12	15	19	3.12 µg/mL and 6.78 µM	113	102
CN[C@@H]1[C@H](O[C@H]2[C@H](O[C@H]3[C@H](O)[C@@H](O)[C@H](N=C(N)N)[C@@H](O)[C@@H]3N=C(N)N)O[C@@H](C)[C@]2(O)C=O)O[C@@H](CO)[C@H](O)[C@H]1O [STREPTOMYCIN]		7.82 µg/mL and 25.5 µM	7.82 µg/mL and 13.4 µM	7.82 µg/mL and 13.4 µM	inactive		21	18.5	21				
Cc1ccc(Nc2nc(-c3cn(-c4ccc(F)cc4)nc3-c3ccc(F)cc3)cs2)cc1	10.2	125 µg/mL (≈ 281 µM)	15.6 µg/mL and 35.2 µM		15.6 µg/mL and 35.2 µM	inactive	15	18	13	18.6	3.12 µg/mL and 7.03 µM	99.5	114
Clc1ccc(Nc2nc(-c3cn(-c4ccccc4)nc3-c3ccc(Cl)cc3)cs2)cc1	10.4	125 µg/mL (≈ 270 µM)		125 µg/mL (≈ 270 µM)	31.2 µg/mL and 67.5 µM	inactive	14	11.6	14.2	17.4	1.6 µg/mL and 3.46 µM	118	99.2
COc1ccc(Nc2nc(-c3cn(-c4ccccc4)nc3-c3ccc(C)cc3)cs2)cc1	10.6	125 µg/mL (≈ 285 µM)		125 µg/mL (≈ 285 µM)	15.6 µg/mL and 35.7 µM	inactive	15	12.4	14	18.6	50 µg/mL and 114 µM	97.5	90.5
COc1ccc(Nc2nc(-c3cn(-c4ccccc4)nc3-c3ccc(Cl)cc3)cs2)cc1	10	125 µg/mL (≈ 272 µM)	125 µg/mL (≈ 272 µM)	125 µg/mL (≈ 272 µM)	15.6 µg/mL and 32.5 µM	inactive	14	14.8	15	18.2	1.6 µg/mL and 3.49 µM		
Fc1ccc(-c2nn(-c3ccc(F)cc3)cc2-c2csc(Nc3ccccc3)n2)cc1	12.2	125 µg/mL (≈ 290 µM)	125 µg/mL (≈ 290 µM)	125 µg/mL (≈ 290 µM)	15.6 µg/mL and 36.3 µM	inactive	15.2	14	15	19.25	25 µg/mL and 58.1 µM		
c1ccc(Nc2nc(-c3cn(-c4ccccc4)nc3-c3ccccc3)cs2)cc1	11.2	125 µg/mL (≈ 317 µM)		62.5 µg/mL and 1590 µM	15.6 µg/mL and 39.6 µM	inactive	15	11.2	16	18.8	1.6 µg/mL and 4.06 µM	97.5	90.5
Cc1ccc(-c2nn(-c3ccccc3)cc2-c2csc(Nc3ccccc3)n2)cc1	9.6	125 µg/mL (≈ 306 µM)		125 µg/mL (≈ 306 µM)	15.6 µg/mL and 38.3 µM	13 mm	15	11.4	15	20	12.5 µg/mL and 30.6 µM	64.6	57.3
